Where two headings read alike, the source gives them in different places.
Columns and labels:
HRV-14 3CP = target: T1, HRV-14 3CP (Human rhinovirus 14, UniProt P03303); test: 3CP enzyme inhibition assay; assay type: biochemical; conditions: for kinact/KI: read-out: Kobs/[I]
T1 construct: The 2A and 3C protease (3CP) process this polyprotein into its functional viral proteins in HRV
From the text: 3CP Inhibition Assays and Antiviral Assays The details of the 3CP enzyme assays used and the antiviral assays used are outlined in Dragovich, P. S., Webber, S. E, Babine, R. E., Fuhrman, S. A., Patick, A. K., Matthews, D. A., Lee, C. A., Reich, S. H., Prins, T. J., Marakovits, J. T., Littlefield, E. S., Zhou, R., Tikhe, J., Ford, C. E., Wallace, M. B., Meador, III, J. W., Ferre, R., Brown, E. L., Binford, S. L, Harr, , J. E. V., DeLisle, D. M. and Worland, S. T. Structure-Based Design, Synthesis, and Biological Evaluation of Irreversible Human Rhinovirus 3C Protease Inhibitors. 1. Michael Acceptor Structure-Activity Studies J. Med. Chem. 1998,41, 2806, the disclosure of which is incorporated by reference herein.

HRV-14 = test: antiviral cytopathic effect assay employing H1-HeLa cells infected with HRV-14; assay type: cell-based, human rhinovirus serotype 14; conditions: for EC50: Rhinovirus B, HRV14, H1-HeLa
[1] = cytotoxicity (CC50) in the antiviral cell culture assay; conditions: human
3CP = target: T2, 3CP (Human rhinovirus 14, UniProt P03303); test: loss of 3CP inhibitory activity after exposure of compound to DTT; assay type: biochemical; conditions: for DTT inhib.: loss of 3CP inhibitory activity after exposure to 5 mM DTT for 2-3 min at 23° C.
T2 construct: The 2A and 3C protease (3CP) process this polyprotein into its functional viral proteins in HRV
Method: With this information in hand, additional esters were prepared and tested. It was anticipated that by filling the active site in the prime direction (S1′-S2′), additional affinity might be obtained. […] To determine whether the activity of the parent compound 1 was due to the inherent reactivity of the unsaturated ester, alternative substitutions were examined in the 1-position corresponding to the S1 recognition pocket. […] (Webber, S. E., Tikhe, J., Worland, S. T., Fuhrman, S. A., Hendrickson, T. F., Matthews, D. A., Love, R. A., Patick, A. K., Meador, J. W., Ferre, R. A., Brown, E. L., DeLisle, D. M., Ford, C. E., Binford, S. L. Design, Synthesis, and Evaluation of Nonpeptidic Inhibitors of Human Rhinovirus 3C Protease. J. Med. Chem. 1996, 39, 5072-5082.) Increased activation of the Michael acceptor toward nucleophilic addition, by alpha cyano substitution, led to a modest but reversible inhibitor, compound 9. Various unsaturated imides, also expected to be more reactive than an unsaturated ester, were poor inhibitors. Exploration of α,β-unsaturated ketones led to some interesting findings. […] When tested in the antiviral assay, ketones in general had greater toxicity (lower CC50) and no measurable antiviral effect. […] (Dragovich, P. S., Webber, S. E, Babine, R. E., Fuhrman, S. A., Patick, A. K., Matthews, D. A., Lee, C. A., Reich, S. H., Prins, T. J., Marakovits, J. T., Littlefield, E. S., Zhou, R., Tikhe, J., Ford, C. E., Wallace, M. B., Meador, III, J. W., Ferre, R., Brown, E. L., Binford, S. L, Harr, J.E. V., DeLisle, D. M. and Worland, S. T. Structure-Based Design, Synthesis, and Biological Evaluation of Irreversible Human Rhinovirus 3C Protease Inhibitors. 1. Michael Acceptor Structure-Activity Studies J. Med. Chem. 1998,41, 2806.) Electron-donating substituents at the 4-position of the phenyl ketone (4-Me2N—, 4-MeO—), were expected to make the ketones less reactive, however, no effect on their inactivation with DTT was observed. Similarly, heterocyclic ketones (2-pyridyl, 2-furyl) maintained their reactivity with DTT. In an attempt to make the inhibitors more compact, an indenone scaffold was designed. […] It became clear that while small, nonpeptidic α,β-unsaturated ketones such as compound 22 afforded potent […] inhibition of 3CP, this increased reactivity was incompatible with the more complex cellular milieu present in the cytopathic effect assay.

[2] = Table 1, Serotype 14, NI = no inhibition

T2 sequence (P03303 1538-1719): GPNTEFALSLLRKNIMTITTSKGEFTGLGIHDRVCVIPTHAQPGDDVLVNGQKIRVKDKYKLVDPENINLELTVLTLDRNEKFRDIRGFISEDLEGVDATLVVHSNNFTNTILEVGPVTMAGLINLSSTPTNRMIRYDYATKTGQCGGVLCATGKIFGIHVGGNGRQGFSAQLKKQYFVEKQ
T1 sequence (P03303 1538-1719): as above

Row | Compound | EC50 (HRV-14) | CC50 [1] | further results
1 | CCOC(=O)/C=C/c1cc(CO)cc(C(N)=O)c1 [Compound 13, 3-(3-Carbamoyl-5-hydroxymethyl-phenyl)-acrylic acid ethyl ester] | > 100 µM | > 100 µM | kinact/KI (HRV-14 3CP; [2]): 54 M⁻¹ s⁻¹
2 | NC(=O)c1cccc(C=CC(=O)OCc2ccccc2)c1 [Compound 3, 3-(3-Carbamoyl-phenyl)-adrylic acid benzyl ester] |  |  | Kobs/[I] (HRV-14 3CP; [2]): 25 M⁻¹ s⁻¹; CC50 (H1-HeLa cells): > 100 µM
3 | 3-[3-Carbamoyl-5-(5-pyridin-2-yl-[1,3,4]oxaldiazol-2-ylsulfanylmethyl-phenyl]-acrylic acid ethyl ester [Compound 25] |  |  | Kobs/[I] (HRV-14 3CP; Table 3, Serotype 14): 286 M⁻¹ s⁻¹
4 | CCOC(=O)C=Cc1cc(CN2CCN(c3ccccc3C#N)CC2)cc(C(N)=O)c1 [Compound 30, 3-{3-Carbamoyl-5-[4-(2-cyano-phenyl)-piperazin-1-ylmethyl]-phenyl}-acrylicacid ethyl ester] | 0.6 µM | 79 µM | kinact/KI (HRV-14 3CP; Table 3, Serotype 14): 139 M⁻¹ s⁻¹; antiviral activity (in words) (HRV-14): submicromolar antiviral activity; EC50 (HRV-14; read-out: antiviral EC50): 0.6 µM
5 | CN(C)c1ccc(C(=O)/C=C/c2cccc(C(N)=O)c2)cc1 [Compound 18, 3-[3-(4-Dimethylamino-phenyl)-oxo-propenyl] benzamide] | > 15 µM | > 15 µM | DTT inhib. (3CP): yes
6 | NC(=O)c1cccc(C=CC(=O)c2ccco2)c1 [Compound 21, 3-(3-Furan-2-yl-3-oxo-propenyl)-benzamide] | > 71 µM | > 71 µM | DTT inhib. (3CP): yes
7 | CC(=O)C=Cc1cccc(C(N)=O)c1 [Compound 16, 3-(3-Oxo-but-1-enyl)-benzamide] | 32 µM | 40 µM | DTT inhib. (3CP): yes
8 | NC(=O)c1ccc2c(c1)C=CC2=O [Compound 22, 1-Oxo-1H-indene-5-carboxylic acid amide] | > 20 µM | > 20 µM | antiviral activity (in words) (HRV-14): no antiviral activity; DTT inhib. (3CP): yes; inactivation by DTT (in words) (3CP; upon incubation with DTT): inactivated by DTT; melting point: 275 °C (dec.)
9 | CCOC(=O)C=Cc1cc(CN2CCN(c3ccccn3)CC2)cc(C(N)=O)c1 [Compound 26, 3-[3-Carbamoyl-5-(4-pyridin-2-yl-piperizin-1-methyl)-phenyl]-acrylic acid ethyl ester] |  |  | Kobs/[I] (HRV-14 3CP; Table 3, Serotype 14): 269 M⁻¹ s⁻¹
10 | NC(=O)c1cccc(C=CC(=O)OCc2cccnc2)c1 [Compound 6, 3-(3-Carbamoyl-phenyl)-acrylic acid pyridin-3-yl methyl ester] |  |  | Kobs/[I] (HRV-14 3CP; [2]): 57 M⁻¹ s⁻¹
11 | CCOC(=O)C=Cc1ccc(OCc2ccccc2)c(C(N)=O)c1 [Compound 15, 3-(4-Benzyloxy-3-carbamoyl-phenyl)-acrylic acid ethyl ester] | > 320 µM | > 320 µM | kinact/KI (HRV-14 3CP; [2]): 30 M⁻¹ s⁻¹
12 | NC(=O)c1cccc(C=CC(=O)c2ccccn2)c1 [Compound 20, 3-(3-Oxo-3-pyridin-2-yl-propenyl)-benzamide] | > 50 µM | > 50 µM | DTT inhib. (3CP): yes
13 | CCOC(=O)C=Cc1cc(OCc2ccccc2)cc(C(N)=O)c1 [Compound 12, 3-(3-Benzyloxy-5-carbamoyl-phenyl)-acrylic acid ethyl ester] |  |  | melting point: 193 to 194 °C
14 | CCOC(=O)C=Cc1cc(CN2CCN(C(=O)OCC)CC2)cc(C(N)=O)c1 [Compound 28, 4-[3-Carbamoyl-5-(2-ethoxycarbonyl-vinyl)-benzyl]-piperazine-1-carboxylic acid ethyl ester] | 1.8 µM | > 100 µM | kinact/KI (HRV-14 3CP): 130 M⁻¹ s⁻¹
15 | CCOC(=O)/C=C/c1cc(O)cc(C(N)=O)c1 [Compound 11, 3-(3-Carbamoyl-5-hydroxy-phenyl)-acrylic acid ethyl ester] | > 100 µM | > 100 µM | kinact/KI (HRV-14 3CP; [2]): 47 M⁻¹ s⁻¹; melting point: 200 to 202 °C
16 | NC(=O)c1cccc(C=CC(=O)OCCc2ccccc2)c1 [Compound 5, 3-(3-Carbamoyl-phenyl)-acrylic acid phenethyl ester] | 100 µM | > 320 µM | kinact/KI (HRV-14 3CP; [2]): 83 M⁻¹ s⁻¹
17 | CCOC(=O)/C=C/c1cc(C(N)=O)ccc1C [Compound 10, 6-Methyl-3-(3-carbamoylphenyl)-acrylic acid ethyl ester] | > 100 µM | > 100 µM | % inhibition (printed in the Kobs/[I] column) (HRV-14 3CP; @ 25 (concentration unit not given), Serotype 14): 10% @ 25
18 | NC(=O)c1cccc(C=CC(=O)OCCO)c1 [Compound 4, 3-(3-Carbamoyl-phenyl)-acrylic acid 2-hydroxyethyl ester] | 20 µM | > 320 µM | kinact/KI (HRV-14 3CP; [2]): 42 M⁻¹ s⁻¹
19 | NC(=O)c1cccc(C=CC(=O)c2ccccc2)c1 [Compound 17, 3-(3-Oxo-3-phenyl-prop-1-enyl)-benzamide] | 28 µM | > 28 µM | DTT inhib. (3CP): yes
20 | CCOC(=O)C=Cc1cc(CN(CCC(=O)OCC)Cc2ccccc2)cc(C(N)=O)c1 [Compound 23, 3-(3-{[Benzyl-(2-ethoxycarbonyl-ethyl)-amino]-methyl}-5-carbamoyl-phenyl)-acrylic acid ethylester] | 10 µM | > 100 µM | kinact/KI (HRV-14 3CP; Table 3, Serotype 14): 568 M⁻¹ s⁻¹
21 | CCOC(=O)C=Cc1cc(CN2CCN(c3ncccn3)CC2)cc(C(N)=O)c1 [Compound 29, 3-{3-Carbamoyl-5-(4-pyrimidin-2-yl-piperazin-1-ylmethyl)-phenyl}-acrylic acid ethyl ester] |  | > 100 µM | kinact/KI (HRV-14 3CP): 163 M⁻¹ s⁻¹; EC50 (HRV-14; Table 3, Serotype 14, read-out: EC50): 1 µM
22 | CCOC(=O)/C=C/c1cccc(C(N)=O)c1 [Compound 1, 3-(3-Carbamoylphenyl)-acrylic acid ethyl ester] | 15.9 µM | > 320 µM | kinact/KI (HRV-14 3CP): 52 M⁻¹ s⁻¹; melting point: 168 to 170 °C
23 | COc1ccc(C(=O)/C=C/c2cccc(C(N)=O)c2)cc1 [Compound 19, 3-[3-(4-Methoxy-phenyl)-oxo-propenyl] benzamide] | > 22 µM | > 22 µM | DTT inhib. (3CP): yes
24 | NC(=O)c1cccc(C=O)c1 [Compound 1a, 3-Carbamoyl-benzaldehyde] |  |  | Ki (HRV-14 3CP): 104 µM
25 | COC(=O)/C=C/c1cccc(C(N)=O)c1 [Compound 2, 3-(3-Carbamoyl-phenyl)-acrylic acid methyl ester] | 150 µM | > 320 µM | kinact/KI (HRV-14 3CP; [2]): 28 M⁻¹ s⁻¹; fold less active in the antiviral assay relative to ethyl ester compound 1 (HRV-14): 10 fold
26 | CCOC(=O)/C(C#N)=C/c1cccc(C(N)=O)c1 [Compound 9, (E)-3-(3-Carbamoyl-phenyl)-2-cyano-acrylic acid ethyl ester] | > 100 µM | > 100 µM | 

Reference: patent US6369226B1, “Substituted benzamide inhibitors of rhinovirus 3C protease” (Agouron Pharmaceuticals, Inc., priority 1999, dated 2002)
